# Laboratory results from patent US6737383B1, “Herbicidal oxadiazolidines” (priority 1999, dated 2004).
# What was measured:
# blackgrass = experiment: Test B pre/postemergence blackgrass; format: in vivo, Alopecurus myosuroides
# Summary of the method: (§1)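 Response is a visual 0-to-10 score relative to untreated plants, where 0 means no effect and 10 means complete control, taken twelve to sixteen days after application. Treatments went onto soil at planting and onto foliage of 1- to 4-leaf plants, using a surfactant-containing non-phytotoxic solvent.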
# surinam grass = experiment: Test B pre/postemergence surinam grass; format: in vivo, Brachiaria decumbens
# Summary of the method: as §1
# cocklebur = experiment: Test B pre/postemergence cocklebur; format: in vivo, Xanthium strumarium
# Summary of the method: as §1
# corn = experiment: Test B pre/postemergence corn; format: in vivo, Zea mays
# Summary of the method: as §1
# crabgrass = experiment: Test B pre/postemergence crabgrass; format: in vivo, Digitaria sanguinalis
# Summary of the method: as §1
# giant foxtail = experiment: Test B pre/postemergence giant foxtail; format: in vivo, Setaria faberii
# Summary of the method: as §1
# morningglory = experiment: Test B pre/postemergence morningglory; format: in vivo, Ipomoea hederacea
# Summary of the method: as §1
# soybean = experiment: Test B pre/postemergence soybean; format: in vivo, Glycine max
# Summary of the method: as §1
# velvetleaf = experiment: Test B pre/postemergence velvetleaf; format: in vivo, Abutilon theophrasti
# Summary of the method: as §1
# wheat = experiment: Test B pre/postemergence wheat; format: in vivo, Triticum aestivum
# Summary of the method: as §1
# wild oat = experiment: Test B pre/postemergence wild oat; format: in vivo, Avena fatua
# Summary of the method: as §1
# purple nutsedge = experiment: Test B pre/postemergence purple nutsedge; format: in vivo, Cyperus rotundus
# Summary of the method: as §1
# rice = experiment: Test B flood test rice; format: in vivo, Oryza sativa
# Summary of the method: (§2)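 Read-out is a visual response score from 0 (no effect) to 10 (complete control), assigned by comparison with untreated controls. Treatment was applied at the 2-leaf stage, and plants stayed in the greenhouse for twelve to sixteen days before scoring.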
# smallflower flatsedge = experiment: Test B flood test smallflower flatsedge; format: in vivo, Cyperus difformis
# Summary of the method: as §2
# duck salad = experiment: Test B flood test duck salad; format: in vivo, Heteranthera limosa
# Summary of the method: as §2
# bamyardgrass = experiment: Test B flood test barnyardgrass; format: in vivo, Echinochloa crus-galli
# Summary of the method: as §2
# [1] = Postemergence, Rate 250 g/ha, scale 0 to 10
# [2] = Postemergence, Rate 500 g/ha, scale of 0 to 10 where 0 is no effect and 10 is complete control
# [3] = Preemergence, Rate 62 g/ha, scale of 0 to 10 where 0 is no effect and 10 is complete control
# [4] = Preemergence, Rate 125 g/ha, scale of 0 to 10 where 0 is no effect and 10 is complete control
# [5] = Preemergence, Rate 250 g/ha, scale 0 to 10, 0 is no effect, 10 is complete control
# [6] = Preemergence, Rate 500 g/ha, scale 0 to 10, 0 is no effect, 10 is complete control
# [7] = Rate 62 g/ha, Postemergence, scale 0 to 10 (0 no effect, 10 complete control)
# [8] = Rate 125 g/ha, Postemergence, scale 0 to 10, 0 is no effect, 10 is complete control
# [9] = Rate 62 g/ha, flood test species, Pre-emergence, visual evaluation after twelve to sixteen days
# [10] = Rate 125 g/ha, under heading Pre-emergence, flood test species, visual evaluation after twelve to sixteen days
# [11] = Rate 250 g/ha, Pre-emergence (flood test species), scale 0 to 10, 0 is no effect, 10 is complete control
# [12] = Rate 500 g/ha, Pre-emergence, flood test species, scale 0 to 10 (0 no effect, 10 complete control)
compound,measurement,setting,value
CC(C)N(C(=O)n1oc(=O)n(CNC(=O)c2ccccc2)c1=O)c1ccc(F)cc1 [Compound 445],Blackgrass plant response rating,blackgrass; [1],0
same,Blackgrass plant response rating,blackgrass; [2],0
same,"Plant response rating, Blackgrass",blackgrass; [3],0
same,"Plant response rating, Blackgrass",blackgrass; [4],0
same,Blackgrass plant response rating,blackgrass; [5],0
same,Blackgrass plant response rating,blackgrass; [6],1
same,Blackgrass plant response rating,blackgrass; [7],0
same,Blackgrass plant response rating,blackgrass; [8],0
same,B. signalgrass plant response rating,"surinam grass; Postemergence, Rate 250 g/ha, scale 0 to 10, 0 no effect, 10 complete control",0
same,B. signalgrass plant response rating,surinam grass; [2],0
same,"Plant response rating, B. signalgrass",surinam grass; [3],0
same,"Plant response rating, B. signalgrass",surinam grass; [4],0
same,B. signalgrass plant response rating,surinam grass; [5],2
same,B. signalgrass plant response rating,surinam grass; [6],3
same,B. signalgrass plant response rating,surinam grass; [7],0
same,B. signalgrass plant response rating,surinam grass; [8],0
same,Cocklebur plant response rating,cocklebur; [1],2
same,Cocklebur plant response rating,cocklebur; [2],2
same,"Plant response rating, Cocklebur",cocklebur; [3],0
same,"Plant response rating, Cocklebur",cocklebur; [4],0
same,Cocklebur plant response rating,cocklebur; [5],0
same,Cocklebur plant response rating,cocklebur; [7],0
same,Cocklebur plant response rating,cocklebur; [8],2
same,Corn plant response rating,corn; [1],0
same,Corn plant response rating,corn; [2],0
same,"Plant response rating, Corn",corn; [3],0
same,"Plant response rating, Corn",corn; [4],0
same,Corn plant response rating,corn; [5],0
same,Corn plant response rating,corn; [6],0
same,Corn plant response rating,corn; [7],0
same,Corn plant response rating,corn; [8],0
same,Crabgrass plant response rating,crabgrass; [1],3
same,Crabgrass plant response rating,crabgrass; [2],7
same,"Plant response rating, Crabgrass",crabgrass; [3],0
same,"Plant response rating, Crabgrass",crabgrass; [4],2
same,Crabgrass plant response rating,crabgrass; [5],3
same,Crabgrass plant response rating,crabgrass; [6],9
same,Crabgrass plant response rating,crabgrass; [7],0
same,Crabgrass plant response rating,crabgrass; [8],1
same,Giant foxtail plant response rating,giant foxtail; [1],1
same,Giant foxtail plant response rating,giant foxtail; [2],2
same,"Plant response rating, Giant foxtail",giant foxtail; [3],0
same,"Plant response rating, Giant foxtail",giant foxtail; [4],0
same,Giant foxtail plant response rating,giant foxtail; [5],5
same,Giant foxtail plant response rating,giant foxtail; [6],9
same,Giant foxtail plant response rating,giant foxtail; [7],0
same,Giant foxtail plant response rating,giant foxtail; [8],0
same,Morningglory plant response rating,morningglory; [1],4
same,Morningglory plant response rating,morningglory; [2],8
same,"Plant response rating, Morningglory",morningglory; [3],0
same,"Plant response rating, Morningglory",morningglory; [4],0
same,Morningglory plant response rating,morningglory; [5],0
same,Morningglory plant response rating,morningglory; [6],0
same,Morningglory plant response rating,morningglory; [7],3
same,Morningglory plant response rating,morningglory; [8],4
same,Soybean plant response rating,soybean; [1],1
same,Soybean plant response rating,soybean; [2],2
same,"Plant response rating, Soybean",soybean; [3],0
same,"Plant response rating, Soybean",soybean; [4],0
same,Soybean plant response rating,soybean; [6],0
same,Soybean plant response rating,soybean; [7],1
same,Soybean plant response rating,soybean; [8],1
same,Velvetleaf plant response rating,velvetleaf; [1],3
same,Velvetleaf plant response rating,velvetleaf; [2],5
same,"Plant response rating, Velvetleaf",velvetleaf; [3],0
same,"Plant response rating, Velvetleaf",velvetleaf; [4],0
same,Velvetleaf plant response rating,velvetleaf; [5],2
same,Velvetleaf plant response rating,velvetleaf; [6],3
same,Velvetleaf plant response rating,velvetleaf; [7],0
same,Velvetleaf plant response rating,velvetleaf; [8],2
same,Wheat plant response rating,wheat; [1],0
same,Wheat plant response rating,wheat; [2],0
same,"Plant response rating, Wheat",wheat; [3],0
same,"Plant response rating, Wheat",wheat; [4],0
same,Wheat plant response rating,wheat; [5],0
same,Wheat plant response rating,wheat; [6],0
same,Wheat plant response rating,wheat; [7],0
same,Wheat plant response rating,wheat; [8],0
same,Wild oats plant response rating,wild oat; [1],0
same,Wild oats plant response rating,wild oat; [2],0
same,"Plant response rating, Wild oats",wild oat; [3],0
same,"Plant response rating, Wild oats",wild oat; [4],0
same,Wild oats plant response rating,wild oat; [5],0
same,Wild oats plant response rating,wild oat; [6],0
same,Wild oats plant response rating,wild oat; [7],0
same,Wild oats plant response rating,wild oat; [8],0
same,Nutsedge plant response rating,purple nutsedge; [1],0
same,Nutsedge plant response rating,purple nutsedge; [2],0
same,"Plant response rating, Nutsedge",purple nutsedge; [3],0
same,"Plant response rating, Nutsedge",purple nutsedge; [4],0
same,Nutsedge plant response rating,purple nutsedge; [5],0
same,Nutsedge plant response rating,purple nutsedge; [6],0
same,Nutsedge plant response rating,purple nutsedge; [7],0
same,Nutsedge plant response rating,purple nutsedge; [8],0
same,"Plant response rating, Rice (0 to 10 scale, 0 is no effect, 10 is complete control)",rice; [9],0
same,"Rice plant response rating (0 to 10 scale, 0 is no effect, 10 is complete control)",rice; [10],0
same,Rice plant response rating,rice; [11],0
same,Rice plant response rating,rice; [12],0
same,"Plant response rating, S. Flatsedge (0 to 10 scale, 0 is no effect, 10 is complete control)",smallflower flatsedge; [9],0
same,"S. Flatsedge plant response rating (0 to 10 scale, 0 is no effect, 10 is complete control)",smallflower flatsedge; [10],0
same,S. Flatsedge plant response rating,smallflower flatsedge; [11],0
same,S. Flatsedge plant response rating,smallflower flatsedge; [12],0
same,"Plant response rating, Ducksalad (0 to 10 scale, 0 is no effect, 10 is complete control)",duck salad; [9],0
same,"Ducksalad plant response rating (0 to 10 scale, 0 is no effect, 10 is complete control)",duck salad; [10],0
same,Ducksalad plant response rating,duck salad; [11],0
same,Ducksalad plant response rating,duck salad; [12],0
same,"Plant response rating, Barnyardgrass (0 to 10 scale, 0 is no effect, 10 is complete control)",bamyardgrass; [9],0
same,"Barnyardgrass plant response rating (0 to 10 scale, 0 is no effect, 10 is complete control)",bamyardgrass; [10],0
same,Barnyardgrass plant response rating,bamyardgrass; [11],0
same,Barnyardgrass plant response rating,bamyardgrass; [12],0
